Laboratory results taken from patent US11286268B1, “EIF4E-inhibiting compounds and methods” (EFFECTOR THERAPEUTICS, INC., priority 2019, dated 2022).

molecular target: recombinant eIF4E (Homo sapiens (Human), UniProt P06730); experiment: Fluorescence polarization competition assay for eIF4E binding potency; settings: inhibition of eIF4E/EDA-m7GDP-ATTO-550 binding; calculated IC50 values, Table 4B; read-out: IC50
How it was run: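 Competitive displacement format: compounds compete with a fluorescent m7GDP tracer (20 nM) for 75 nM recombinant eIF4E. Incubation is 30 min at room temperature, protected from light, with 1% DMSO. Polarization read gives IC50 over eight 3-fold concentrations.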

recombinant eIF4E, sequence (P06730 whole entry): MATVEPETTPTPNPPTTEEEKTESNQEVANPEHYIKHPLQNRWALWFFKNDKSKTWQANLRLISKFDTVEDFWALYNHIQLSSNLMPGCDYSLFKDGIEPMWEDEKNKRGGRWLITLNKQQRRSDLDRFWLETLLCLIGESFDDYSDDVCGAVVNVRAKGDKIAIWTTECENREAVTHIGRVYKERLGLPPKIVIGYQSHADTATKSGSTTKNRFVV

IC50 [nM] | SMILES
222 | Cc1sc2c(-c3cc(Cl)ccc3OCCn3c(C)nc4cc(C(F)(F)F)c(N5CCN(C)CC5)c(C#N)c4c3=O)ccnc2c1C [compound 1252]
8.4 | Cc1nc2cc(C(F)(F)F)c(N3CCN(C)CC3)c(C#N)c2c(=O)n1CCOc1ccc(Cl)cc1-c1cc(CF)nc2ccsc12 [compound 1253]
26.5 | Cc1nc2cc(C(F)(F)F)c(N3CCN(C)CC3)c(C#N)c2c(=O)n1CCOc1ccc(Cl)cc1-c1ccnc2c(C#N)csc12 [compound 1254]
150 | Cc1nc2cc(C(F)(F)F)c(CCN(C)C)c(C#N)c2c(=O)n1CCOc1ccc(Cl)cc1-c1ccnc2ccsc12 [compound 1255]
24.7 | Cc1nc2cc(C(F)(F)F)c(CN3CCN(C)CC3)c(C#N)c2c(=O)n1CCOc1ccc(Cl)cc1-c1ccnc2ccsc12 [compound 1256]
52.5 | Cc1nc2cnc(N3CCN(C)CC3)c(C#N)c2c(=O)n1CCOc1ccc(Cl)cc1-c1ccnc2ccsc12 [compound 1257]
61.5 | Cc1nc2cnc(N3CCC(O)C3)c(C#N)c2c(=O)n1CCOc1ccc(Cl)cc1-c1ccnc2ccsc12 (stereo not drawn) [compound 1258]
13 | Cc1nc2cc(C(F)(F)F)c(C#CCN)c(C#N)c2c(=O)n1CCOc1ccc(Cl)cc1-c1ccnc2c(C(=O)O)csc12 [compound 1260]
33.6 | Cc1nc2cc(C(F)(F)F)c(N3CCN(C)C(CO)C3)c(C#N)c2c(=O)n1CCOc1ccc(Cl)cc1-c1ccnc2c(C(=O)O)csc12 (stereo not drawn) [compound 1261]
12.4 | Cc1nc2cnc(C3(F)CCN(C)CC3)c(C#N)c2c(=O)n1CCOc1ccc(Cl)cc1-c1ccnc2c(C(=O)O)csc12 [compound 1264]
11.5 | Cc1nc(N2CC3(CN(C)C3)C2)c(C#N)c2c(=O)n(CCOc3ccc(Cl)cc3-c3ccnc4c(C(=O)O)csc34)c(C)nc12 [compound 1265]
> 1000 | Cc1ncc(F)cc1-c1c(CN(C)C)cc2nc(C)n(CCOc3ccc(Cl)cc3-c3ccnc4c(C(=O)O)csc34)c(=O)c2c1C#N [compound 1267]
472 | COc1ccc(-c2csc3c(-c4cc(Cl)ccc4OCCn4c(C)nc5cnc(N6CCN(C)CC6)c(C#N)c5c4=O)ccnc23)cc1 [compound 1268]
66.6 | Cc1nc2cc(C(F)(F)F)c(N3CCN(C)CC3)c(C#N)c2c(=O)n1CCSc1ccc(Cl)cc1-c1ccnc2c(C(=O)O)csc12 [compound 1269]
39.9 | Cc1nc2cc(C(F)(F)F)c(N3CCN(C)CC3=O)c(C#N)c2c(=O)n1CC#Cc1ccc(Cl)cc1-c1ccnc2c(C(=O)O)csc12 [compound 1270]
13.1 | Cc1sc2c(-c3cc(Cl)ccc3C#CCn3c(C)nc4cc(C(F)(F)F)c(N5CCN(C)CC5)c(C#N)c4c3=O)ccnc2c1C(=O)O [compound 1271]
28.1 | Cc1sc2c(-c3cc(Cl)ccc3OCCn3c(C)nc4cc(C(F)(F)F)c(N5CCN(C)CC5=O)c(C#N)c4c3=O)ccnc2c1C(=O)O [compound 1272]
7.48 | Cc1nc(N2CCN(C)CC2)c(C#N)c2c(=O)n(CC#Cc3ccc(Cl)cc3-c3ccnc4c(C(=O)O)csc34)c(C)nc12 [compound 1273]
40.2 | Cc1nc(N2CCN(CC(F)F)CC2)c(C#N)c2c(=O)n(CCOc3ccc(Cl)cc3-c3ccnc4c(C(=O)O)csc34)c(C)nc12 [compound 1274]
58.7 | CCc1cc(-c2cc(Cl)ccc2OCCn2c(C)nc3cc(C(F)(F)F)c(CC4CCN(C)CC4)c(C#N)c3c2=O)c2scc(C(=O)O)c2n1 [compound 1275]
13.5 | CCc1cc(-c2cc(Cl)ccc2OCCn2c(C)nc3cc(C(F)(F)F)c(CC4CCNCC4)c(C#N)c3c2=O)c2scc(C(=O)O)c2n1 [compound 1276]

IC50 [nM] | SMILES
38.4 | Cc1nc2cc(CN3CC(F)(F)C3)c(OC(F)F)c(C#N)c2c(=O)n1CCOc1ccc(Cl)cc1-c1ccnc2c(C(=O)O)csc12 [compound 1277]
10.6 | Cc1nc2cc(CN(C)CCF)c(OC(F)F)c(C#N)c2c(=O)n1CCOc1ccc(Cl)cc1-c1ccnc2c(C(=O)O)csc12 [compound 1278]
8.91 | Cc1nc2cnc(C3CCC(F)(F)C3)c(C#N)c2c(=O)n1CCOc1ccc(Cl)cc1-c1ccnc2c(C(=O)O)csc12 (stereo not drawn) [compound 1279]
4.26 | Cc1cc(-c2cc(Cl)ccc2OCCn2c(C)nc3ccc(N4CCC(O)C4)c(C#N)c3c2=O)c2scc(C(=O)O)c2n1 (stereo not drawn) [compound 1280]
117 | Cc1nc2cnc(N(C)C3CCN(CC(F)F)CC3)c(C#N)c2c(=O)n1CC#Cc1ccc(Cl)cc1-c1ccnc2c(C(N)=O)csc12 [compound 1281]
38.2 | Cc1sc2c(-c3cc(Cl)ccc3OCCn3c(C)nc4cnc(N5CCN(C)CC5)c(C#N)c4c3=O)ccnc2c1C(=O)O [compound 1282]
33.5 | Cc1sc2c(-c3cc(Cl)ccc3OCCn3c(C)nc4cc(C(F)(F)F)c(CC5CN(C)C5)c(C#N)c4c3=O)ccnc2c1C(=O)O [compound 1283]
> 1000 | Cc1ncc(F)cc1-c1c(CN(C)C)cc2nc(C)n(CCOc3ccc(Cl)cc3-c3ccnc4c(C(=O)O)c(C)sc34)c(=O)c2c1C#N [compound 1284]
34.2 | Cc1sc2c(-c3cc(Cl)ccc3OCCn3c(C)nc4cc(C(F)(F)F)c(N5CCN(C)CC5)c(C#N)c4c3=O)ccc(F)c2c1C(=O)O [compound 1286]
42.4 | Cc1nc2cc(C(F)(F)F)c(CCN3CC(F)(F)C3)c(C#N)c2c(=O)n1CCOc1ccc(Cl)cc1-c1ccnc2c(C(=O)O)csc12 [compound 1287]
36.7 | Cc1nc2cc(C(F)(F)F)c(CCN(C)CC(F)F)c(C#N)c2c(=O)n1CCOc1ccc(Cl)cc1-c1ccnc2c(C(=O)O)csc12 [compound 1288]
149 | Cc1nc2cc(C(F)(F)F)c(N3CCN(CC(F)F)CC3)nc2c(=O)n1CC#Cc1ccc(Cl)cc1-c1ccnc2c(C(=O)O)csc12 [compound 1290]
41.2 | Cc1nc2cc(C(F)(F)F)c(N3CCN(C4CC4)CC3)c(C#N)c2c(=O)n1CCOc1ccc(Cl)cc1-c1ccnc2c(C(=O)O)csc12 [compound 1291]
52.3 | Cc1nc2cc(C(F)(F)F)c(N3CCN(C4CC(F)(F)C4)CC3)c(C#N)c2c(=O)n1CCOc1ccc(Cl)cc1-c1ccnc2c(C(=O)O)csc12 [compound 1292]
35.1 | Cc1nc2cc(C(F)(F)F)c(N3CCN(CCC(F)(F)F)CC3)c(C#N)c2c(=O)n1CCOc1ccc(Cl)cc1-c1ccnc2c(C(=O)O)csc12 [compound 1293]
55.9 | Cc1sc2c(-c3cc(Cl)ccc3OCCn3c(C)nc4cc(S(C)(=O)=O)c(N5CCN(C)CC5)c(C#N)c4c3=O)ccnc2c1C(=O)O [compound 1294]
13.4 | Cc1cc(-c2cc(Cl)ccc2OCCn2c(C)nc3cc(S(C)(=O)=O)c(N4CCN(C)CC4)c(C#N)c3c2=O)c2scc(C(=O)O)c2n1 [compound 1295]
27 | Cc1nc2cc(S(C)(=O)=O)c(N3CCN(C)CC3)c(C#N)c2c(=O)n1CCOc1ccc(Cl)cc1-c1ccnc2c(C(=O)O)csc12 [compound 1296]
37.8 | Cc1sc2c(-c3cc(Cl)ccc3OCCn3c(C)nc4c(C)nc(N5CCN(C)CC5)c(C#N)c4c3=O)ccnc2c1C(=O)O [compound 1297]
38.3 | Cc1nc2cc(C(F)(F)F)c(CCN(C)C)c(C#N)c2c(=O)n1CC#Cc1ccc(Cl)cc1-c1ccnc2c(C(=O)O)csc12 [compound 1298]
32.1 | Cc1nc2cc(C(F)(F)F)c(N3CCN(C)CC3)cc2c(=O)n1CCOc1ccc(Cl)cc1-c1ccnc2c(C(=O)NS(C)(=O)=O)csc12 [compound 1299]
